Test results reported in the supplement of paper PMC10307832.

Columns and labels:
Experiment in all cases: relative viability (nuclei count vs DMSO), 5 days (fraction); higher = more cells survive
KIN001-266 + Bortezomib = compound: CCN1CCC(CC1)N2C=C(N=N2)CNC3=CC4=C(C(=CN=C4C(=C3)Cl)C#N)NC5=CC(=C(C=C5)F)Cl [KIN001-266] + CC(C)C[C@H](NC(=O)[C@H](Cc1ccccc1)NC(=O)c1cnccn1)B(O)O [Bortezomib] (partner 0.002 µM)
Method in brief: (§1)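 Lung cancer cell lines in 1536-well plates got either a single drug or a fixed anchor-drug dose together with five library-drug doses (not always all listed) in √10 steps, by pin tool, on the day after seeding. Nuclei were counted after 5 days, and relative viability is the treated-to-vehicle ratio of nuclei counts. Values are medians of duplicate plates.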

KIN001-266 + Navitoclax = compound: CCN1CCC(CC1)N2C=C(N=N2)CNC3=CC4=C(C(=CN=C4C(=C3)Cl)C#N)NC5=CC(=C(C=C5)F)Cl [KIN001-266] + CC1(C)CCC(c2ccc(Cl)cc2)=C(CN2CCN(c3ccc(C(=O)NS(=O)(=O)c4ccc(N[C@H](CCN5CCOCC5)CSc5ccccc5)c(S(=O)(=O)C(F)(F)F)c4)cc3)CC2)C1 [Navitoclax] (partner 0.5 µM)
Method in brief: as §1

KIN001-266 + Luminespib = compound: CCN1CCC(CC1)N2C=C(N=N2)CNC3=CC4=C(C(=CN=C4C(=C3)Cl)C#N)NC5=CC(=C(C=C5)F)Cl [KIN001-266] + CCNC(=O)c1noc(-c2cc(C(C)C)c(O)cc2O)c1-c1ccc(CN2CCOCC2)cc1 [Luminespib] (partner 0.01 µM)
Method in brief: as §1

KIN001-266 + Dasatinib = compound: CCN1CCC(CC1)N2C=C(N=N2)CNC3=CC4=C(C(=CN=C4C(=C3)Cl)C#N)NC5=CC(=C(C=C5)F)Cl [KIN001-266] + Cc1nc(Nc2ncc(C(=O)Nc3c(C)cccc3Cl)s2)cc(N2CCN(CCO)CC2)n1 [Dasatinib] (partner 0.075 µM)
Method in brief: as §1

Cell Line	relative viability (KIN001-266 + Bortezomib; first compound 0.08 µM)	relative viability (KIN001-266 + Bortezomib; first compound 0.253 µM)	relative viability (KIN001-266 + Bortezomib; first compound 0.8 µM)	relative viability (KIN001-266 + Bortezomib; first compound 2.53 µM)	relative viability (KIN001-266 + Bortezomib; first compound 8 µM)	relative viability (KIN001-266 + Navitoclax; first compound 0.08 µM)	relative viability (KIN001-266 + Navitoclax; first compound 0.253 µM)	relative viability (KIN001-266 + Navitoclax; first compound 0.8 µM)	relative viability (KIN001-266 + Navitoclax; first compound 2.53 µM)	relative viability (KIN001-266 + Navitoclax; first compound 8 µM)	relative viability (KIN001-266 + Luminespib; first compound 0.08 µM)	relative viability (KIN001-266 + Luminespib; first compound 0.253 µM)	relative viability (KIN001-266 + Luminespib; first compound 0.8 µM)	relative viability (KIN001-266 + Luminespib; first compound 2.53 µM)	relative viability (KIN001-266 + Luminespib; first compound 8 µM)	relative viability (KIN001-266 + Dasatinib; first compound 0.08 µM)	relative viability (KIN001-266 + Dasatinib; first compound 0.253 µM)	relative viability (KIN001-266 + Dasatinib; first compound 0.8 µM)	relative viability (KIN001-266 + Dasatinib; first compound 2.53 µM)	relative viability (KIN001-266 + Dasatinib; first compound 8 µM)
NCI-H3122	0.996	1.03	1.03	0.969	0.974	0.968	1.09	1.01	0.998	0.769	0.0939	0.0878	0.106	0.123	0.098	0.78	0.752	0.856	0.891	0.763
PC-3 [JPC-3]	0.786	0.846	0.813	0.736	0.764	0.813	0.869	0.759	0.738	0.803	0.719	0.673	0.613	0.744	0.669	0.982	1.01	0.912	1.01	0.847
PC-14	0.881	0.816	0.892	0.759	0.297	0.973	1.03	1.07	0.959	0.599	0.167	0.117	0.171	0.225	0.152	0.297	0.277		0.203	0.0481
RERF-LC-KJ	1.11	1.23	1.08	1.01	0.82	0.989	0.81	0.937	0.849	0.651	1.31	1.23	1.14	1.16	0.739	0.951	0.922	0.757	0.725	0.417
SK-LU-1	1.39	1.14	1.31	1.12	1.04	0.677	0.465	1.11	0.839	0.512	0.206	0.215	0.223	0.22	0.189	0.192	0.19	0.172	0.197	0.195
SW 1573	1.13	0.914	1.09	0.92	0.808	1.05	1.05	1.03	0.91	0.643	0.268	0.272	0.195	0.238	0.211	0.515	0.735	0.483	0.503	0.437
UMC-11	0.703	0.543	0.71	0.638	0.738	0.3	0.319	0.38	0.355	0.278	0.986	0.977	1.03	0.937	0.449	0.438	0.452	0.481	0.421	0.382
